Reference: patent US5322841A, “Method for producing neutral glucans for pharmaceutical applications” (Alpha-Beta Technology, Inc., priority 1992, dated 1994)

Experiments:
[1] = tested on: β-glucan receptor of monocytes; test: Inhibition of Zymosan ingestion by human monocytes (affinity for the monocyte β-glucan receptor); format: cell-based
Experimental: Human monocytes were incubated with various concentrations of the PGG for 15 minutes, washed to remove unbound glucan and then incubated with Zymosan for 30 minutes. After fixing and staining the monolayers, the percentage of monocytes ingesting Zymosan was determined. The affinity of glucan preparations for the β-glucan receptor by was measured according to their ability to competitively occupy the receptor thus inhibiting the uptake of Zymosan by monocytes. Samples were compared by taking the concentration of glucan required to obtain 50% inhibition of Zymosan ingestion.
Two molecular weight fractions of PGG from Saccharomyces cerevisiae R4 were prepared according to the procedure outlined in Example 2. The PGG preparations were then assayed for their affinity to the monocyte β-glucan receptor by measuring inhibition of Zymosan phagocytosis as described in Example 3.

[2] = target: β-glucan receptor of monocytes; conditions: Table 1; value from Czop and Austen, J. Immunology 135(5):3388-3393 (1985); cited from earlier work
[3] = tested on: peripheral white blood cell (WBC) counts; test: Peripheral total and differential white blood cell counts in mice after IV or SC PGG; format: in vivo, male CD-1 mice
Experimental: The effect of in vivo administration of modified glucans on peripheral white blood cell (WBC) counts was characterized in mice. PGG preparations of the modified glucan from strain R4 were prepared according to the procedure outlined in Example 2 and administered intravenously (IV) and subcutaneously (SC) to male CD-1 mice. Total and differential cell counts were monitored at regular time intervals.

E. coli strain TVDL-rat = test: E. coli sepsis model in mice; format: in vivo
Experimental: A sepsis model was developed in mice to characterize the efficacy of modified PGG glucans in protecting an immunologically intact host against serious infections, such as those which commonly occur following abdominal surgery. PGG derived from WGP-R4 was prepared according to the procedure outlined in Example 2.
The model used intraperitoneal challenge of mice with an 0.1 ml suspension of E. coli strain TVDL-rat (approximately 10^8 CFU/ml) 24 hours following IV administration of PGG by single bolus injection using transthoracic cardiac puncture. Mice were returned to their cages and maintained on food and water ad libitum. A control group of 10 mice were injected with 0.1 ml sterile saline at the time of the PGG administration. Mortality rates for the treatment groups and saline control group were recorded at 48 hours after challenge.

[4] = most pronounced increase, FIGS. 2 and 3, mice
[5] = multiple-dose SC regimen, 5 mg/mouse/day×4 days, after initiation of therapy

| Substance | Relative Avidity ([1]; Table 1, relative to Barley β-Glucan = 1) | Concentration for 50% Inhibition [2] [µg/mL] | concentration of glucan required to obtain 50% inhibition of Zymosan ingestion ([1]; human monocytes incubated with glucan 15 minutes, then Zymosan 30 minutes, FIG. 1) [µg/mL] | increase in activity (affinity for monocyte β-glucan receptor) versus YE glucan ([1]; ratio of concentrations for 50% inhibition of Zymosan ingestion) [fold] | time to amplification of total WBC counts ([3]; FIGS. 2 and 3, mice) [h] | increase in granulocyte count [3, 4] [×] | increase in monocyte count [3, 4] [×] | increase in average monocyte count, zero hours to 144 hours ([3]; multiple-dose SC regimen) [fold] | time at which increase in total WBC begins [3, 5] [h] | time at which increase in total WBC peaks [3, 5] [h] | average monocyte count ([3]; multiple-dose SC regimen, at 144 hours (320/mm^3 at zero hours)) | total WBC count ([3]; single-dose IV administration, 5 mg/mouse) | lowest dose significantly reducing mortality (E. coli strain TVDL-rat; single IV bolus 24 hours before E. coli challenge, equals 0.5 mg/kg body weight) [mg/mouse] | mortality at 48 hours after challenge compared to saline control group (E. coli strain TVDL-rat; single IV bolus 24 hours before intraperitoneal E. coli challenge, p<0.05, doses as low as 0.01 mg/mouse (0.5 mg/kg body weight)) |
| --- | --- | --- | --- | --- | --- | --- | --- | --- | --- | --- | --- | --- | --- | --- |
| Barley β-Glucan [reference compound] | 1 | 65 |  |  |  |  |  |  |  |  |  |  |  |  |
| poly-(1-6)-β-D-glucopyranosyl-(1-3)-β-D-glucopyranose [PGG] |  |  | 0.1 | 35 | < 6 | 6 | 12 | 24 | 48 | 144 | approximately 8,000 /mm^3 | profound increase | 0.01 | significantly reduced mortality |
